Laboratory results published in PubChem BioAssay (NCI).
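Compound exposure: 48 hours, 5 concentrations, 96-well plates. Abbreviation: GI50, concentration required for 50% inhibition of growth. At the TGI there is no net growth.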

Columns and labels:
Assay in all cases: inhibition of tumour cell growth, NCI panel, 48 h; in the data active = GI50 below about 0.43 µM; inactive = the rest
[1] = system: 786-0 renal
[2] = system: A498 renal
[3] = system: A549 NSCLC
[4] = system: ACHN renal
[5] = system: BT-549 breast
[6] = system: CAKI-1 renal
[7] = system: CCRF-CEM leukemia
[8] = system: COLO 205 colon
[9] = system: DU-145 prostate
[10] = system: EKVX NSCLC
[11] = system: HCC-2998 colon
[12] = system: HCT-116 colon
[13] = system: HCT-15 colon
[14] = system: HL-60(TB) leukemia
[15] = system: HOP-62 NSCLC
[16] = system: HOP-92 NSCLC
[17] = system: HS 578T breast
[18] = system: HT29 colon
[19] = system: IGROV1 ovarian
[20] = system: K-562 leukemia
[21] = system: KM12 colon
[22] = system: LOX IMVI melanoma
[23] = system: M14 melanoma
[24] = system: MALME-3M melanoma
[25] = system: MCF7 breast
[26] = system: MDA-MB-231 breast
[27] = system: MDA-MB-435
[28] = system: MDA-MB-468 breast
[29] = system: MOLT-4 leukemia
[30] = system: NCI-H226 lung
[31] = system: NCI-H23 lung
[32] = system: NCI-H460 lung
[33] = system: NCI-H522 lung
[34] = system: NCI/ADR-RES ovarian
[35] = system: OVCAR-3 ovarian
[36] = system: OVCAR-4 ovarian
[37] = system: OVCAR-5 ovarian
[38] = system: OVCAR-8 ovarian
[39] = system: PC-3 prostate
[40] = system: RPMI-8226 leukemia
[41] = system: RXF 393 renal
[42] = system: SF-268 CNS
[43] = system: SF-295 CNS
[44] = system: SF-539 CNS
[45] = system: SK-MEL-2 melanoma
[46] = system: SK-MEL-28 melanoma
[47] = system: SK-MEL-5 melanoma
[48] = system: SK-OV-3 ovarian
[49] = system: SN12C renal
[50] = system: SNB-19 CNS
[51] = system: SR leukemia
[52] = system: SW-620 colon
[53] = system: T-47D breast
[54] = system: TK-10 renal
[55] = system: U251 CNS
[56] = system: UACC-257 melanoma
[57] = system: UACC-62 melanoma
[58] = system: UO-31 renal
[59] = system: SNB-75 CNS

O=C(NNc1nc2cc(F)ccc2n2c(CN3CC4CNCC4C3)ccc12)c1ccncn1 (stereo unspecified)
12.1 µM: TGI [8] | TGI [15] | TGI [25] | TGI [48]
10.8 µM: TGI [40]
9.6 µM: TGI [29]
11 µM: TGI [56]
12.2 µM: TGI [55]
29.9 µM: TGI [34]
inactive: GI50 [1] 0.5 µM | GI50 [2] 24.9 µM | GI50 [3] 2.09 µM | GI50 [4] 0.62 µM | GI50 [5] 1.59 µM | GI50 [6] 0.654 µM | GI50 [7] 1.55 µM | GI50 [8] 3.05 µM | GI50 [9] 3.26 µM | GI50 [10] 0.441 µM | GI50 [11] 3.05 µM | GI50 [12] 0.73 µM | GI50 [13] 0.746 µM | GI50 [14] 1.23 µM | GI50 [15] 0.686 µM | GI50 [17] 10 µM | GI50 [18] 2.02 µM | GI50 [19] 2.36 µM | GI50 [20] 1.76 µM | GI50 [21] 1.78 µM | GI50 [22] 1 µM | GI50 [23] 0.804 µM | GI50 [24] 2.17 µM | GI50 [25] 2 µM | GI50 [26] 2.31 µM | GI50 [27] 3.68 µM | GI50 [28] 1.21 µM | GI50 [29] 1.45 µM | GI50 [30] 0.943 µM | GI50 [31] 2.31 µM | GI50 [32] 0.591 µM | GI50 [33] 2.36 µM | GI50 [34] 11.5 µM | GI50 [35] 3.26 µM | GI50 [36] 1.56 µM | GI50 [37] 2.49 µM | GI50 [38] 1.29 µM | GI50 [39] 2.11 µM | GI50 [40] 1.95 µM | GI50 [41] 1.58 µM | GI50 [42] 1.71 µM | GI50 [44] 1.56 µM | GI50 [45] 2.65 µM | GI50 [46] 2.36 µM | GI50 [47] 1.52 µM | GI50 [48] 0.984 µM | GI50 [49] 1.79 µM | GI50 [50] 2.67 µM | GI50 [51] 0.751 µM | GI50 [52] 2.55 µM | GI50 [53] 3.11 µM | GI50 [54] 0.648 µM | GI50 [55] 0.78 µM | GI50 [56] 3.16 µM | GI50 [57] 1.19 µM | GI50 [58] 0.822 µM
10.7 µM: TGI [43]
11.8 µM: TGI [49]
6.18 µM: TGI [7]
8.29 µM: TGI [47]
11.2 µM: TGI [4]
17.3 µM: TGI [35] | TGI [36]
3.41 µM: TGI [57]
11.3 µM: TGI [1]
81.9 µM: TGI [17]
8.75 µM: TGI [24]
14.7 µM: TGI [45] | TGI [53]
11.7 µM: TGI [33] | TGI [58]
18.1 µM: TGI [18]
16.2 µM: TGI [21] | TGI [26]
4.74 µM: TGI [23]
4.51 µM: TGI [14]
16.6 µM: TGI [50]
14.9 µM: TGI [3]
23.1 µM: TGI [52]
16.4 µM: TGI [54]
13.7 µM: TGI [12]
15.4 µM: TGI [39]
6.73 µM: TGI [30]
6.37 µM: TGI [16]
15.9 µM: TGI [13]
9.23 µM: TGI [10]
6.4 µM: TGI [44]
9.24 µM: TGI [51]
40.4 µM: TGI [2]
12.8 µM: TGI [6] | TGI [41]
4.05 µM: TGI [22]
13.3 µM: TGI [19]
17.6 µM: TGI [27]
15 µM: TGI [42]
15.7 µM: TGI [9]
10.4 µM: TGI [31] | TGI [38]
16.1 µM: TGI [32]
14.1 µM: TGI [46]
11.9 µM: TGI [20]
13.2 µM: TGI [5]
active: GI50 [16] 0.0544 µM | GI50 [43] 0.421 µM
3.57 µM: TGI [28]
17.5 µM: TGI [11] | TGI [37]

CC1=C(C(=O)OCc2ccccc2)C(c2cccc3ccccc23)n2c(nc3ccccc32)N1 (stereo unspecified)
21.7 µM: TGI [47]
8.29 µM: TGI [18]
7.66 µM: TGI [45]
7.58 µM: TGI [35]
> 100 µM: TGI [1] | TGI [2] | TGI [3] | TGI [4] | TGI [5] | TGI [6] | TGI [7] | TGI [8] | TGI [9] | TGI [10] | TGI [11] | TGI [12] | TGI [13] | TGI [14] | TGI [15] | TGI [19] | TGI [20] | TGI [21] | TGI [22] | TGI [23] | TGI [24] | TGI [25] | TGI [26] | TGI [29] | TGI [30] | TGI [31] | TGI [32] | TGI [36] | TGI [37] | TGI [38] | TGI [39] | TGI [40] | TGI [42] | TGI [43] | TGI [44] | TGI [46] | TGI [48] | TGI [49] | TGI [50] | TGI [51] | TGI [52] | TGI [53] | TGI [54] | TGI [55] | TGI [57] | TGI [58]
7.26 µM: TGI [28]
4.91 µM: TGI [59]
4.68 µM: TGI [27]
inactive: GI50 [1] 4.68 µM | GI50 [2] > 100 µM | GI50 [3] 5.21 µM | GI50 [4] 4.66 µM | GI50 [5] 4.67 µM | GI50 [6] 2.4 µM | GI50 [7] 2.69 µM | GI50 [8] 3.22 µM | GI50 [9] 4.21 µM | GI50 [10] 4.8 µM | GI50 [11] 7.58 µM | GI50 [12] 3.19 µM | GI50 [13] 3.61 µM | GI50 [14] 2.14 µM | GI50 [15] 4.15 µM | GI50 [17] 2.69 µM | GI50 [18] 2.53 µM | GI50 [19] 5.49 µM | GI50 [20] 1.66 µM | GI50 [21] 3.21 µM | GI50 [22] 5.7 µM | GI50 [23] 3.78 µM | GI50 [24] 3.84 µM | GI50 [25] 2.71 µM | GI50 [26] > 100 µM | GI50 [27] 1.86 µM | GI50 [28] 1.93 µM | GI50 [29] 2.71 µM | GI50 [30] 3.26 µM | GI50 [31] 32.6 µM | GI50 [32] 3.61 µM | GI50 [35] 2.65 µM | GI50 [36] 6.36 µM | GI50 [37] > 100 µM | GI50 [38] 4.94 µM | GI50 [39] 3.33 µM | GI50 [40] 3.46 µM | GI50 [41] 1.51 µM | GI50 [42] 5.44 µM | GI50 [43] 3.04 µM | GI50 [44] 3.22 µM | GI50 [45] 2.5 µM | GI50 [46] > 100 µM | GI50 [47] 3.37 µM | GI50 [48] 3.97 µM | GI50 [49] 5.08 µM | GI50 [50] 5.8 µM | GI50 [59] 1.39 µM | GI50 [51] 2.4 µM | GI50 [52] 3.62 µM | GI50 [53] 4.22 µM | GI50 [54] > 100 µM | GI50 [55] 3.49 µM | GI50 [57] 3.99 µM | GI50 [58] 4.64 µM
6.9 µM: TGI [41]
8.82 µM: TGI [17]
